From patent publication US20140213538A1, “LYSOPHOSPHATIDIC ACID RECEPTOR ANTAGONISTS” (InterMune, Inc., priority 2013, published 2014)

Target: LPA1 (Homo sapiens, UniProt Q92633)
Experiment: LPA1 Migration Assay (Oris)
Assay type: cell-based
Set-up: host or cells: primary fibroblasts (lung, dermal), HFL-1, 3T3 and CHO cells expressing LPA1R
Conditions: read-out: Cell Migration EC50
From the text: LPA1 Migration Assay Migration of primary fibroblasts (including lung, dermal), HFL-1, 3T3 and CHO cells expressing LPA1R were monitored using the Oris™ assay (Platypus Technologies, Madison, Wis.). These cells were dye (Cell Tracker Green™) loaded and serum starved for 12-24 hrs. In response to chemoattractants such as LPA and serum, the cells migrated inward in to the exclusion (detection) zone. After fixing, fluorescent cells in the detection zone were counted using a high content reader. The ability of LPA1 antagonists to inhibit cell migration is quantified by plotting cell number vs. compound concentration and curve fitting the resulting dose-response curve to a 4 parameter logistic function.

Chain of LPA1 (Q92633 whole entry): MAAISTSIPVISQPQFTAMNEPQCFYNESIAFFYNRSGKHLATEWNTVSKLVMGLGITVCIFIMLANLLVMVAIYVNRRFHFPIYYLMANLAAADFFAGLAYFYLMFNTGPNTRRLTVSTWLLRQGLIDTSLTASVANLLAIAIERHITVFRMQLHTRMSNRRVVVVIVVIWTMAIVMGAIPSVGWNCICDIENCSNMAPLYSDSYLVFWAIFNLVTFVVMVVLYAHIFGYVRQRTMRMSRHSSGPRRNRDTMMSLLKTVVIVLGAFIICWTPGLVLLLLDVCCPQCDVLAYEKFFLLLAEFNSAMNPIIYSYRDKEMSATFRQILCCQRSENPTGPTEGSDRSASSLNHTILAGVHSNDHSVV

SMILES | EC50
Cc1noc(-c2ccc(-c3ccc4c(c3)CCCC4C(=O)O)cc2)c1NC(=O)O[C@H](C)c1ccccc1 (mixture of isomers) [IT038] | > 500 nM
Cc1noc(-c2ccc(-c3ccc4c(c3)CCCC4C(=O)O)cc2)c1NC(=O)O[C@H](C)c1ccccc1 (mixture of isomers) [IT039] | > 500 nM
Cc1noc(C#Cc2ccc(NC3(C(=O)O)CC3)cc2)c1NC(=O)O[C@H](C)c1ccccc1 [IT006] | 50 to 500 nM
C[C@@H](OC(=O)Nc1c(C#Cc2ccc3cc(C4(C(=O)O)CC4)ccc3c2)cnn1C)c1ccccc1 [IT014] | 50 to 500 nM
CCn1ncc(C#Cc2ccc3cc(C4(C(=O)O)CC4)ccc3c2)c1NC(=O)O[C@H](C)c1ccccc1 [IT016] | 50 to 500 nM
C[C@@H](OC(=O)Nc1c(-c2ccc(-c3ccc(C4(C(=O)O)CC4)cc3)cc2)nc2cnccn12)c1ccccc1 [IT032] | 50 to 500 nM
C[C@@H](OC(=O)Nc1c(C#Cc2ccc3cc(C4(C(=O)O)CC4)ccc3c2)sc2ncccc12)c1ccccc1 [IT035] | 50 to 500 nM
C[C@@H](OC(=O)Nc1c(-c2ccc(-c3ccc(C4(C(=O)O)CC4)cc3)cc2)nc2ncccn12)c1ccccc1 [IT043] | 50 to 500 nM
C[C@@H](OC(=O)Nc1c(-c2cc(F)c(-c3ccc(C4(C(=O)O)CCOCC4)cc3)cc2F)cnn1C)c1ccccc1 [IT044] | 50 to 500 nM
Cc1nsc(-c2ccc(-c3cc4sc(C5(C(=O)O)CC5)cc4s3)cc2)c1NC(=O)O[C@H](C)c1ccccc1 [IT046] | 50 to 500 nM
Cc1noc(C#Cc2cc3sc(C4(C(=O)O)CC4)cc3s2)c1NC(=O)OCc1ccccc1 [IT048] | 50 to 500 nM
C[C@@H](OC(=O)Nc1c(-c2cc(F)c(-c3ccc(C4(C(=O)O)CC4)cc3)cc2F)nn2ccccc12)c1ccccc1 [IT049] | 50 to 500 nM
C[C@@H](OC(=O)Nc1c(-c2ccc(-c3cc4sc(C5(C(=O)O)CC5)cc4s3)cc2)nnn1C)c1ccccc1 [IT050] | 50 to 500 nM
C[C@@H](OC(=O)Nc1c(-c2ccc(-c3cc4sc(C5(C(=O)O)CC5)cc4s3)cc2)cnn1C)c1ccccc1 [IT056] | 50 to 500 nM
C[C@@H](OC(=O)Nc1c(C2CCC(c3ccc(C4(C(=O)O)CC4)cc3)CC2)cnn1C)c1ccccc1 (some centres unmarked) [IT066] | > 500 nM
C[C@@H](OC(=O)Nc1c(C#Cc2cc3sc(C4(C(=O)O)CC4)cc3s2)oc2ccccc12)c1ccccc1 [IT074] | > 500 nM
C[C@@H](OC(=O)Nc1c(-c2cc(F)c(-c3ccc(C4(C(=O)O)CC4)cc3)cc2F)oc2ccccc12)c1ccccc1 [IT075] | 50 to 500 nM
COCCOC(=O)C1(c2cc3sc(C#Cc4cnn(C)c4NC(=O)O[C@H](C)c4ccccc4)cc3s2)CC1 [IT084] | 50 to 500 nM
CCOC(=O)C1(c2cc3sc(C#Cc4cnn(C)c4NC(=O)O[C@H](C)c4ccccc4)cc3s2)CC1 [IT085] | > 500 nM
COc1ccccc1OC(=O)C1(c2cc3sc(C#Cc4cnn(C)c4NC(=O)O[C@H](C)c4ccccc4)cc3s2)CC1 [IT088] | 50 to 500 nM
C[C@@H](OC(=O)Nc1c(-c2cc(F)c(-c3ccc(C4(C(=O)O)CC4)cc3)cc2F)oc2ncccc12)c1ccccc1 [IT096] | 50 to 500 nM
C[C@@H](OC(=O)N(C)c1c(C#Cc2cc3sc(C4(C(=O)O)CC4)cc3s2)cnn1C)c1ccccc1 [IT097] | > 500 nM
Cc1c(C#Cc2cnn(C)c2NC(=O)O[C@H](C)c2ccccc2)sc2c(C)c(C3(C(=O)O)CC3)sc12 [IT110] | 50 to 500 nM
C[C@@H](OC(=O)Nc1c(-c2ccc3cc(C#CC4(C(=O)O)CC4)ccc3c2)nnn1C)c1ccccc1 [IT146] | 50 to 500 nM

The next lines start with the values.

EC50 | SMILES
> 500 nM | CCC(C)OC(=O)Nc1c(C)noc1-c1ccc(-c2ccc(Oc3ccccc3C(=O)O)cc2)cc1 (single isomer, unassigned) [IT493]
50 to 500 nM | Cc1noc(C#Cc2ccc3cc(C4(CC(=O)O)CC4)ccc3c2)c1NC(=O)O[C@H](C)c1ccccc1 [IT003]
> 500 nM | Cc1noc(-c2ccc(-c3ccc4c(c3)NC(=O)CC4C(=O)O)cc2)c1NC(=O)O[C@H](C)c1ccccc1 (some centres unmarked) [IT011]
50 to 500 nM | C[C@@H](OC(=O)Nc1c(C#Cc2ccc3cc(C4(C(=O)O)CC4)ccc3c2)cnn1C1CC1)c1ccccc1 [IT015]
50 to 500 nM | C[C@@H](OC(=O)Nc1c(-c2ccc(-c3ccc(C4(C(=O)O)CC4)cc3)cc2)sc2ncccc12)c1ccccc1 [IT031]
50 to 500 nM | Cc1nsc(C#Cc2cc3sc(C4(C(=O)O)CC4)cc3s2)c1NC(=O)O[C@H](C)c1ccccc1 [IT034]
50 to 500 nM | Cc1nsc(-c2cc(F)c(-c3ccc(C4(C(=O)O)CCOCC4)cc3)cc2F)c1NC(=O)O[C@H](C)c1ccccc1 [IT042]
> 500 nM | C[C@@H](OC(=O)Nc1c(-c2ccc(-c3ccc(C4(C(=O)O)CC4)cc3)cc2)nn2cccnc12)c1ccccc1 [IT052]
50 to 500 nM | C[C@@H](OC(=O)Nc1c(-c2cc(F)c(-c3ccc(C4(C(=O)O)CC4)cc3)cc2F)nn2ncccc12)c1ccccc1 [IT061]
50 to 500 nM | C[C@@H](OC(=O)Nc1c(C#Cc2ccc3cc(C4(C(=O)O)CC4)ccc3c2)nnn1C)c1ccccc1 [IT064]
> 500 nM | Cc1noc(C#Cc2ccc3cc(CC4(C(=O)O)CC4)ccc3c2)c1NC(=O)O[C@H](C)c1ccccc1 [IT065]
> 500 nM | Cc1nnn(-c2cc(F)c(-c3cc4sc(C5(C(=O)O)CC5)cc4s3)cc2F)c1NC(=O)O[C@H](C)c1ccccc1 [IT067]
50 to 500 nM | C[C@@H](OC(=O)Nc1c(C#Cc2cc3sc(C4(C(=O)O)CC4)cc3s2)nnn1C)c1ccccc1 [IT069]
50 to 500 nM | C[C@@H](OC(=O)Nc1c(-c2cc(F)c(-c3cc4sc(C5(C(=O)O)CC5)cc4s3)cc2F)nnn1C)c1ccccc1 [IT071]
> 500 nM | CC(C)OC(=O)C1(c2cc3sc(C#Cc4cnn(C)c4NC(=O)O[C@H](C)c4ccccc4)cc3s2)CC1 [IT086]
50 to 500 nM | C[C@@H](OC(=O)Nc1c(C#Cc2cc3sc(C4(C(=O)OCC(=O)N(C)C)CC4)cc3s2)cnn1C)c1ccccc1 [IT090]
> 500 nM | C[C@@H](OC(=O)Nc1c(CCc2cc3sc(C4(C(=O)O)CC4)cc3s2)cnn1C)c1ccccc1 [IT099]

Target: T1, LPA/S1P GPCR of interest (Homo sapiens, UniProt Q92633)
T1 construct: host or cells: CHO
T1 sequence (Q92633 whole entry): as above
Experiment: Beta-Arrestin based assay (PathHunter)
Assay type: cell-based
Conditions: not given
Method in brief: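 EA Parental CHO cells (DiscoverX) were transfected with FuGENE (Roche) using CMV promoter-driven DNA constructs encoding the LPA/S1P GPCR of interest fused to a ProLink tag. Beta-arrestin recruitment in agonist mode was assessed 24-48 hrs later with PathHunter kits. Tests ran in quadruplicate in white 384 well plates, and end point luminescence was fit to a 4 parameter logistic function.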

SMILES | EC50
Cc1noc(-c2ccc(-c3ccc4c(c3)CCCC4C(=O)O)cc2)c1NC(=O)O[C@H](C)c1ccccc1 (mixture of isomers) [IT038] | 50 to 500 nM
Cc1noc(C#Cc2ccc(NC3(C(=O)O)CC3)cc2)c1NC(=O)O[C@H](C)c1ccccc1 [IT006] | 50 to 500 nM
C[C@@H](OC(=O)Nc1c(-c2cc(F)c(-c3ccc(C4(C(=O)O)CC4)cc3)cc2F)oc2ncccc12)c1ccccc1 [IT096] | < 50 nM
Cc1c(C#Cc2cnn(C)c2NC(=O)O[C@H](C)c2ccccc2)sc2c(C)c(C3(C(=O)O)CC3)sc12 [IT110] | < 50 nM
Cc1nsc(-c2cc3sc(-c4ccc(C5(C(=O)O)CC5)cn4)cc3s2)c1NC(=O)O[C@H](C)c1ccccc1 [IT426] | 50 to 500 nM
C[C@@H](OC(=O)Nc1c(-c2cc3sc(-c4ccc5[nH]c(C6(C(=O)O)CC6)nc5c4)cc3s2)cnn1C)c1ccccc1 [IT427] | > 500 nM
C[C@@H](OC(=O)Nc1c(-c2ccc(C#CC(=O)Nc3ccccc3C(=O)O)cc2)cnn1C)c1ccccc1 [IT430] | > 500 nM
C[C@@H](OC(=O)Nc1c(-c2ccc(C#CC(=O)NCCC(=O)O)cc2)cnn1C)c1ccccc1 [IT432] | > 500 nM
Cc1nsc(-c2cc3sc(-c4ccc(CC(=O)O)c(S(C)(=O)=O)c4)cc3s2)c1NC(=O)O[C@H](C)c1ccccc1 [IT433] | > 500 nM
C[C@@H](OC(=O)Nc1c(-c2cc3sc(-c4ccc(C5(C(=O)O)CC5)c(S(C)(=O)=O)c4)cc3s2)nnn1C)c1ccccc1 [IT442] | > 500 nM
C[C@@H](OC(=O)Nc1c(-c2cc3sc(-c4ccc(CC(=O)O)c(S(C)(=O)=O)c4)cc3s2)nnn1C)c1ccccc1 [IT443] | > 500 nM
Cc1noc(-c2ccc(-c3ccc(Oc4c(C(=O)O)ncn4C)cc3)cc2)c1NC(=O)O[C@H](C)c1ccccc1 [IT444] | < 50 nM
C[C@@H](OC(=O)Nc1c(-c2cc3sc(-c4ccc(CC(=O)O)c(S(C)(=O)=O)c4)cc3s2)cnn1C)c1ccccc1 [IT445] | > 500 nM
Cc1nsc(-c2cc3sc(-c4ccc(C5(C(=O)O)CC5)c(S(C)(=O)=O)c4)cc3s2)c1NC(=O)O[C@H](C)c1ccccc1 [IT458] | > 500 nM
C[C@@H](OC(=O)Nc1c(-c2ccc(C#CC(=O)N(C)CCC(=O)O)cc2)cnn1C)c1ccccc1 [IT466] | > 500 nM
Cc1noc(-c2ccc(-c3ccc(Oc4nnn(C)c4C(=O)O)cc3)cc2)c1NC(=O)O[C@H](C)c1ccccc1 [IT471] | 50 to 500 nM
C[C@@H](OC(=O)Nc1c(-c2cc(F)c(-c3cc(F)c(Oc4ncccc4C(=O)O)c(F)c3)cc2F)cnn1C)c1ccccc1 [IT473] | < 50 nM
C[C@@H](OC(=O)NC1=C(c2ccc(-c3cc(F)c(OC(C)(C)C(=O)O)c(F)c3)cc2)OC2C=CC=CC12)c1ccccc1 (some centres unmarked) [IT501] | 50 to 500 nM
C[C@@H](OC(=O)Nc1c(-c2ccc(-c3ccc(OC(C)(C)C(=O)O)cc3)cc2)oc2ccccc12)c1ccccc1 [IT508] | 50 to 500 nM
C[C@@H](OC(=O)Nc1c(-c2ccc(-c3cc(F)c(Oc4cc(F)ccc4C(=O)O)c(F)c3)cc2)nnn1C)c1ccccc1 [IT514] | < 50 nM

Other lines, results leading:

EC50 | SMILES
50 to 500 nM | CCC(C)OC(=O)Nc1c(C)noc1-c1ccc(-c2ccc(Oc3ccccc3C(=O)O)cc2)cc1 (single isomer, unassigned) [IT493]
> 500 nM | C[C@@H](OC(=O)Nc1c(-c2ccc(C#CC(=O)Nc3cccc(C(=O)O)c3)cc2)cnn1C)c1ccccc1 [IT429]
> 500 nM | C[C@@H](OC(=O)Nc1c(-c2ccc(C#CC(=O)Nc3ccc(C(=O)O)cc3)cc2)cnn1C)c1ccccc1 [IT431]
> 500 nM | C[C@@H](OC(=O)Nc1c(-c2cc3sc(-c4ccc(C5(C(=O)O)CC5)c(S(C)(=O)=O)c4)cc3s2)cnn1C)c1ccccc1 [IT441]
< 50 nM | C[C@@H](OC(=O)Nc1c(-c2cc3sc(-c4cc(F)c(Oc5ncccc5C(=O)O)c(F)c4)cc3s2)cnn1C)c1ccccc1 [IT470]
> 500 nM | C[C@@H](OC(=O)Nc1nn(C)cc1-c1ccc(-c2cc(F)c(Oc3ncccc3C(=O)O)c(F)c2)cc1)c1ccccc1 [IT472]
50 to 500 nM | C[C@@H](OC(=O)Nc1c(-c2ccc(-c3ccc(OC(C)(C)C(=O)O)c(F)c3)cc2)oc2ccccc12)c1ccccc1 [IT504]
